This is an account of results in article PMC2225439, “Amyloid as a Depot for the Formulation of Long-Acting Drugs” (PLoS Biology, 2008).

The nature of series [1]: Electron microscopy of negative-stained samples. Type of series: physicochemical. Set-up: key to EM^8 / EM^30: fib, fibrils; nfib, no fibrils. Conditions: 1 mg/ml in 5% D-mannitol, room temperature, at least two independent experiments. The procedure:
To formally determine the formation of amyloid fibrils by GnRH analogs and to characterize other possible assemblies present in the sample, EM was done on all of the GnRH analogs. Since the EM analysis is for a qualitative interpretation only, amyloid fibrils and other small aggregates might be observed under the electron microscope even if only a minority of the sample forms fibrils. Samples were studied after 8 and 30 d of incubation. […] The fibrils show a wide variety of morphologies, comprising helical ultrastructures with varying degrees of lateral association. Furthermore, the fibrils are composed of one or more filaments, resulting in overall diameters ranging from approximately 6 to 12 nm. No oligomers are observed for the long-acting compounds at day 8 or at day 30 (Figures 2 and S2).
(§1) GnRH analogs were dissolved in a glass tube in 1 ml of 5% D-mannitol and 0.01% sodium azide at a concentration of 1 mg/ml. The GnRH analogs were then incubated at room temperature without stirring. The fibril formation was monitored by EM, CR, and time-resolved by Thio T binding studies. Three independent experiments were performed for each sample.
A 5-μl aliquot of peptide sample was diluted into 50 μl of water to a peptide concentration of approximately 50 μM, spotted on a glow-discharged, carbon-coated Formvar grid (Electron Microscopy Sciences), incubated for 5 min, washed with distilled water, and then stained with 1% (w/v) aqueous uranyl formate solution. Uranyl formate solutions were filtered through 0.2-μm sterile syringe filters (Corning) before use. EM analysis was performed using a JEOL JEM-100CXII electron microscope at 80 kV with nominal magnifications between 36,000 and 72,000. Images were recorded digitally by using the SIS Megaview III imaging system. At least two independent experiments were carried out for each sample.

Series [2] can be described thus: Thio T binding (amyloid fibril formation). Type of series: physicochemical. Set-up: key to Thio T Binding: b, binding; n, not binding. To be noted: 1 mg/ml in 5% D-mannitol, 0.01% sodium azide. Here is the method:
The kinetics of fibril formation in vitro is generally a slow process over several days or weeks, and can be monitored by the increase of fluorescence intensity of the cross-β-sheet–sensitive dye, Thio T [15]. Thio T fluorescence is thereby insignificant during the initial incubation period of amyloid aggregation due to the nonexistence of Thio T–sensitive β-sheet aggregates. After the initial phase, a time-dependent increase of fluorescence intensity is observed until a maximum intensity is reached, at which time maximal fibril formation has occurred. […] For the Thio T binding studies, all GnRH analogs were incubated at room temperature at a concentration of 1 mg/ml in 5% D-mannitol, conditions identical to the formulation used in the animal experiments. In addition, 0.01% sodium azide was added. The Thio T fluorescence was monitored daily for all analogs over a period of 21 d (Figure 1).
as §1
A 10-μl aliquot of peptide sample was diluted into 500 μl of water with 5% D-mannitol containing 0.01% (w/v) sodium azide. The solution was mixed with 10 μl of 1 mM Thio T prepared in the same solution. Fluorescence was measured immediately after addition of Thio T. The experiment was measured on a spectrofluorimeter (Photon Technology International) with excitation at 450 nm and emission at 482 nm. The fluorescence intensity at 482 nm was plotted against incubation time (day). A rectangular 10-mm quartz microcuvette was used. Three independent experiments were performed for each sample.

Another series deals with T1, α-Syn (Homo sapiens, UniProt P37840).
T1 construct: made in house
The series is described as follows: Cross-seeding of α-Syn by L20 fibrils. To be noted: matured fibrils 5% v/v with 400 μM α-Syn in PBS pH 7.4, 37 °C, vigorous stirring, 30 d; Thio T. Here is the method: Although the seeding of amyloids requires a high amino acid sequence similarity between the protein/peptide of the seed and its soluble host counterpart, cross-seeding between different protein species have been documented. To test whether amyloids of long-acting GnRH analogs are able to cross-seed with a protein associated with Parkinson disease, α-Syn, a seeding reaction was done with a small amount of matured L20 fibrils (5% v/v) in the presence of α-Syn (95% v/v; 400 μM concentration of monomeric solution [pH 7.4] in PBS). The fibril growth of the mixture as well as α-Syn in PBS as control were followed over a period of 30 d by Thio T binding.
A total of 5 μl of matured L20 fibril solution at a concentration of 1 mg/ml in 5% D-mannitol, 0.01% sodium azide was mixed with 95 μl of freshly prepared GnRH solution in the same solution condition followed by incubation at room temperature without stirring. […] Once a week, a 10-μl aliquot was diluted into 500 μl water containing 5% D-mannitol, 0.01% sodium azide, and 10 μl of 1 mM Thio T to measure the Thio T fluorescence as described above. […] The protein concentration of the supernatant was measured by UV absorbance with ɛ280 of 6,500 M^−1cm^−1. […] The formation of amyloid was monitored regularly for the mixture (α-Syn+L20) and α-Syn by Thio T binding.

In series [3] the test system is plasma luteinizing hormone (LH) levels. Conditions: duration of action class as listed in Table 1; castrated male rat assay; ref Tables S1 and S2; cited from earlier work. The source says:
Table 1 Biochemical and Biophysical Properties of Aggregates By GnRH-Analogs | column: Action || Supplement pbio.0060017.st001.doc, table 1: Table S1: Short acting GnRH analogs with their duration of action | column: Duration of action^b || Supplement pbio.0060017.st002.doc, table 1: Table S2: Long acting GnRH analogs with their duration of action | column: Duration of action^b || (+ 2 further places)

As for “Ac-DNal-DCpa-Agl(Nic)-Ser-Aph(Ac)-DAph(Ac)-Leu-ILys-Pro-DAla-NH2 [L20]”, the “EM^8” value in series [1] (electron microscopy at day 8 of incubation) is “fib”. The “EM^30” value in series [1] (electron microscopy at day 30 of incubation) was “fib”. Also, the “Thio T Binding” value in series [2] (room temperature without stirring, monitored daily over 21 d, fluorescence ex 450 nm / em 482 nm, three independent experiments) was “b”. Besides, the “Thio T binding (in words)” value in series [2] (room temperature, 21 d) is on record as “bind significantly more Thio T during the entire experiment”. The “cross-seeding of α-Syn” value on α-Syn is recorded as “did not significantly influence the aggregation of α-Syn”. Further, the Action entry in series [3] is reported as “intermediate”.
